For one assay, the target named is T1, Androgen receptor (Homo sapiens, UniProt P10275).
T1 sequence (P10275 whole entry): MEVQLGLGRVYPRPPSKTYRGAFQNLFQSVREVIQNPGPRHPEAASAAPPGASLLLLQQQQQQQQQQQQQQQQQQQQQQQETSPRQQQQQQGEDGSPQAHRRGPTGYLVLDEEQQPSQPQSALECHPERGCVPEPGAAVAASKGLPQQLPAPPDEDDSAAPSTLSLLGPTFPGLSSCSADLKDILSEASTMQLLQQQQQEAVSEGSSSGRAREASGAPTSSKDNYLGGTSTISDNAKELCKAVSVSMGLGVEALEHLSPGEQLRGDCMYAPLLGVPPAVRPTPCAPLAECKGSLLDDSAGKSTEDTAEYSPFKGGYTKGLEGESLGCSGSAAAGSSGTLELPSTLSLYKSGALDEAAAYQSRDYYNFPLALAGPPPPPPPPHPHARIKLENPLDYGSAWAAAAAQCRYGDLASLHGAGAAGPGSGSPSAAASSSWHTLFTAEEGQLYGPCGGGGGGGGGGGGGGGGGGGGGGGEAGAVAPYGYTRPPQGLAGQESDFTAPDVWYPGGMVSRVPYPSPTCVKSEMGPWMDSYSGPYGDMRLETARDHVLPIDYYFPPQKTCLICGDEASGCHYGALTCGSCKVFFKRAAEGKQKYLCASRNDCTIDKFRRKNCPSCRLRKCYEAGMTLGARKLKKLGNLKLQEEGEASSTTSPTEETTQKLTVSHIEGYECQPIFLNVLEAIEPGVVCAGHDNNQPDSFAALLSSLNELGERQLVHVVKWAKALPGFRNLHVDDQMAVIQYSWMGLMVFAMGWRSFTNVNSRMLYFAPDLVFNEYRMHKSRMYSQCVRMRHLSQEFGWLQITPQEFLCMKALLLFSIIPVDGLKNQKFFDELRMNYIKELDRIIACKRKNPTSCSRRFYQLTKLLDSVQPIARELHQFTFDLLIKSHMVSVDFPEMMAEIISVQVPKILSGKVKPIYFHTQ
Nature of the assay: Agonist activity at androgen receptor ligand binding domain expressed in african green monkey COS7 cells co-transfected with Gal4-DBD up to 10 uM by luciferase reporter gene assay. Format: cell-based. The note with it: cos-7. (In general: In a reporter assay the amount or activity of a reporter protein is the signal.)

Assay [1] addresses T2, Androgen receptor (Homo sapiens) (UniProt P10275).
T2 sequence (whole entry): T1 sequence (P10275 whole entry)
Nature of the assay: Antagonist activity at androgen receptor ligand binding domain expressed in african green monkey COS7 cells co-transfected with Gal4-LBD by luciferase reporter gene assay relative to control. The class given is cell-based. To be noted: COS-7. The arrangement: scale not given: the % may be the effect or the level left.

Assay [2] concerns the target T3, Mineralocorticoid receptor (Homo sapiens, UniProt P08235).
T3 sequence (P08235 whole entry): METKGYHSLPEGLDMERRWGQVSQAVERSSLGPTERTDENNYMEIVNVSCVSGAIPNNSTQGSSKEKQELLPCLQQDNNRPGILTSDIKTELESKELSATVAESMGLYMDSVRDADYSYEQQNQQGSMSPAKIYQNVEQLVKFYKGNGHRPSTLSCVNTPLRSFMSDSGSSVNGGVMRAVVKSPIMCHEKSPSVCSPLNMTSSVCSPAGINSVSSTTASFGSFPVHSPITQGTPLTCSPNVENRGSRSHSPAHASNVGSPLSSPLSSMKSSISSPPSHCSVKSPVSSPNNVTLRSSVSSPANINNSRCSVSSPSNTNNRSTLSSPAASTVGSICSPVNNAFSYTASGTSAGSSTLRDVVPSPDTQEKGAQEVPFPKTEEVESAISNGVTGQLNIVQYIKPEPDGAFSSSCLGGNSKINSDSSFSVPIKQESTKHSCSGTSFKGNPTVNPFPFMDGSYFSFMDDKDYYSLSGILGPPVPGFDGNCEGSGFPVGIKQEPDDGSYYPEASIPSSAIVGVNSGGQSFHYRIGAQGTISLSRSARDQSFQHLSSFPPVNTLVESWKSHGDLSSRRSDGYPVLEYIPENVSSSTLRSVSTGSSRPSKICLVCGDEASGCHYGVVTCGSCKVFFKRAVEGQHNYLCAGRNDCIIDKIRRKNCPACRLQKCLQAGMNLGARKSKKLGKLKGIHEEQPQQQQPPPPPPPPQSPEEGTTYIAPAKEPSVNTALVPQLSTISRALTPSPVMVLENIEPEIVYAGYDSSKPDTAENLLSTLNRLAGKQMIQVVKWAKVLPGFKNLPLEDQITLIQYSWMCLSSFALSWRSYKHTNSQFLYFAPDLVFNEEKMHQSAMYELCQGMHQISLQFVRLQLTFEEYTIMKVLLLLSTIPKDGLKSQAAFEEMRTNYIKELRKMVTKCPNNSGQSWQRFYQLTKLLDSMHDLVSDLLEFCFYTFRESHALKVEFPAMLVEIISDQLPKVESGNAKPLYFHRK
Description: Antagonist activity at mineralocorticoid receptor ligand binding domain expressed in african green monkey COS7 cells co-transfected with Gal4-LBD by luciferase reporter gene assay

The target of the next assay is Estrogen receptor beta (Homo sapiens, UniProt Q92731). Kind of assay: Agonist activity at estrogen receptor beta ligand binding domain expressed in african green monkey COS7 cells co-transfected with Gal4-LBD up to 10 uM by luciferase reporter gene assay. The class given is cell-based. To be noted: cos-7.
The target of assay [3] is T3, Mineralocorticoid receptor. Nature of the assay: Agonist activity at mineralocorticoid receptor ligand binding domain expressed in african green monkey COS7 cells co-transfected with Gal4-LBD up to 10 uM by luciferase reporter gene assay. Format: cell-based. To be noted: cos-7.
The target of assay [4] is T4, Estrogen receptor (Homo sapiens) (UniProt P03372).
T4 sequence (whole entry): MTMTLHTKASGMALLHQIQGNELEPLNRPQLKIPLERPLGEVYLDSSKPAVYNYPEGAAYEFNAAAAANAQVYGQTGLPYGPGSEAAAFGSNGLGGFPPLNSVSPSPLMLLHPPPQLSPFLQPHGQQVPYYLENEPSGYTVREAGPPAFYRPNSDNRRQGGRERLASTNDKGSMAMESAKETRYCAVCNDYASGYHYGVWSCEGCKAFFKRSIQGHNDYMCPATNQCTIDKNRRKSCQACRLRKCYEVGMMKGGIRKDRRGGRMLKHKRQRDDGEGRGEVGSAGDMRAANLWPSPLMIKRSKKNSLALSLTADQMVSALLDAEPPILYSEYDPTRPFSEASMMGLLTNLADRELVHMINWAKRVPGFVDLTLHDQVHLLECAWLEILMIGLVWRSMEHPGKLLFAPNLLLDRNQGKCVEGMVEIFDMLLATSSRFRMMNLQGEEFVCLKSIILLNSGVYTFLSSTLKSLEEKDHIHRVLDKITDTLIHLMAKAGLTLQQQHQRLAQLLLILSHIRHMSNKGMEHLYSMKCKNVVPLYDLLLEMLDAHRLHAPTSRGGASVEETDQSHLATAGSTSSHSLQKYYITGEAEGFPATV
Kind of assay: Antagonist activity at estrogen receptor alpha ligand binding domain expressed in african green monkey COS7 cells co-transfected with Gal4-LBD by luciferase reporter gene assay relative to control. The class given is cell-based. Also noted: scale not given: the % may be the effect or the level left. To be noted: COS-7.

Sequence of Estrogen receptor beta (Q92731 whole entry, the tested form may be a part): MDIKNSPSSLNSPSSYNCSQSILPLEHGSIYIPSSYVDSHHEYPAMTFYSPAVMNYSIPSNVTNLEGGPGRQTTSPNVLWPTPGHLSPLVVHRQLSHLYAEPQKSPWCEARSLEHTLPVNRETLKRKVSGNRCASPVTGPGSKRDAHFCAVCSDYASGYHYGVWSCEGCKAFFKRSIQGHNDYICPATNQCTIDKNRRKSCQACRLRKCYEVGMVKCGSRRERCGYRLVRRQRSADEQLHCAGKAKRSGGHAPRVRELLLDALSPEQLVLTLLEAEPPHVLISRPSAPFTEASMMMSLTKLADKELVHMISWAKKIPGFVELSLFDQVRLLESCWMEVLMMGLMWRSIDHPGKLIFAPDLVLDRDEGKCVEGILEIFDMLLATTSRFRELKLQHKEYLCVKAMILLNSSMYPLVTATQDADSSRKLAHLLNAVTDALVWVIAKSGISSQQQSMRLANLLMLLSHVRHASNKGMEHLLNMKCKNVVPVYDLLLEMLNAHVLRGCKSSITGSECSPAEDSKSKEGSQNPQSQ

`CC1(C)C(=O)CC[C@]2(C)[C@@]3(C)c4[nH]c5ccccc5c4C[C@@H]3CC[C@@]12O` [LECANINDOLE B]: the EC50 entry (on Androgen receptor; on Estrogen receptor beta; in assay [3]) was “Not Active” each time. For the same molecule, the Activity in assay [1] came out at 32%. This molecule returned an IC50 in assay [2] greater than 10 mM.
`CC1(C)[C@H](O)CC[C@]2(C)[C@@]3(C)c4[nH]c5ccccc5c4C[C@@H]3CC[C@@]12O` [LECANINDOLE D]: the EC50 result (at Androgen receptor; on Estrogen receptor beta; in assay [3]) was “Not Active” each time. Moreover, the Activity came out at 41% in assay [1] and 19% in assay [4]. In assay [2], this molecule showed an IC50 greater than 3 mM.

The IC50 is the concentration that inhibits the measured activity by half.

The record behind these values is ChEMBL document CHEMBL1154793, “The lecanindoles, nonsteroidal progestins from the terrestrial fungus Verticillium lecanii 6144” (J Nat Prod, 2009).
